# BindingDB's records for doi:10.1016/S0960-894X(02)00564-4 (Universita Degli Studi Di Firenze, 2002)
# Biological target: T1, Collagenase ColG (Hathewaya histolytica, UniProt Q9X721)
# T1 sequence (Q9X721 whole entry): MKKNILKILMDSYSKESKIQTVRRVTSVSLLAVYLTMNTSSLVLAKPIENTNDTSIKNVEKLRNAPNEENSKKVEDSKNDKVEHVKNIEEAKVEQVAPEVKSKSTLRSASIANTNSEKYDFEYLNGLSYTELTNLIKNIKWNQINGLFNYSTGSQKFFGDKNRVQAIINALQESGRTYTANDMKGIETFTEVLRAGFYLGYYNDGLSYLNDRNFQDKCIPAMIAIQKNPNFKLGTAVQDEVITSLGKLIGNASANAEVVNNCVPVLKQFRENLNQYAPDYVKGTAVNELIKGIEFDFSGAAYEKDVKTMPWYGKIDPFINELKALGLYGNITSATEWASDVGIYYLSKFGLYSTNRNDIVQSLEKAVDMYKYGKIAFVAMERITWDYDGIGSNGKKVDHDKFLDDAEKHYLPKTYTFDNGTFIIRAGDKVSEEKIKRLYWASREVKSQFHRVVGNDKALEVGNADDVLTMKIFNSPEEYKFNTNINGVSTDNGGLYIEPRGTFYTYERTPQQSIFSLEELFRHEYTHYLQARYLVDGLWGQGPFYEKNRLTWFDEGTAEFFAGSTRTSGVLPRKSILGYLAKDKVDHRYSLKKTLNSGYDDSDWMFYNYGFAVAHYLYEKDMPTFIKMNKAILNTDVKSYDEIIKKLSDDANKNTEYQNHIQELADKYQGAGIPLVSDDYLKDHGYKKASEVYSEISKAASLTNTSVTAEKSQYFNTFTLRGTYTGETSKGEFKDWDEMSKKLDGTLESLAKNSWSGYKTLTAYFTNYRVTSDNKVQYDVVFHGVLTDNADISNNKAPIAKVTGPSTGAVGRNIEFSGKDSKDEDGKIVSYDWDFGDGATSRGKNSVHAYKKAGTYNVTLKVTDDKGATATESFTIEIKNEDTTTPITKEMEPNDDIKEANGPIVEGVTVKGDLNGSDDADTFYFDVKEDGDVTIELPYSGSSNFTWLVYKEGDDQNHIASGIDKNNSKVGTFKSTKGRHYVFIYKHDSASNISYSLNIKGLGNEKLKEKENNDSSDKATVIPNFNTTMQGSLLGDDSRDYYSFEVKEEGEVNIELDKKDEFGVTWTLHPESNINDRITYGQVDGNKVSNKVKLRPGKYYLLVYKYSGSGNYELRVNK
# Experiment: MMP Enzyme Inhibition Assay
# Procedure: Initial rates for the hydrolysis of the thioester substrate were used for assessing the catalytic activity and inhibition of the MMPs by the spectrophotometric method. The change of absorbance at 405 nm was monitored. The inhibition constant Ki was then determined by using Easson-Stedman plots and a linear regression program.
row,Structure (SMILES),Ki [µM]
1,"CC(NC(=O)C(Cc1ccccc1)NS(=O)(=O)c1ccc2ccccc2c1)C(=O)Nc1nnc(S)s1 (stereo unspecified) [2-(naphthalene-2-sulfonamido)-3-phenyl-N-{1-[(5-sulfanyl-1,3,4-thiadiazol-2-yl)carbamoyl]ethyl}propanamide]",40
2,"CC(NC(=O)C(Cc1ccccc1)NC(=O)NS(=O)(=O)c1ccc(Cl)cc1)C(=O)Nc1nnc(S)s1 (stereo unspecified) [2-({[(4-chlorobenzene)sulfonyl]carbamoyl}amino)-3-phenyl-N-{1-[(5-sulfanyl-1,3,4-thiadiazol-2-yl)carbamoyl]ethyl}propanamide]",0.3
3,"CC(NC(=O)C(Cc1ccccc1)NC(=O)NS(=O)(=O)c1ccc(F)cc1)C(=O)Nc1nnc(S)s1 (stereo unspecified) [2-({[(4-fluorobenzene)sulfonyl]carbamoyl}amino)-3-phenyl-N-{1-[(5-sulfanyl-1,3,4-thiadiazol-2-yl)carbamoyl]ethyl}propanamide]",0.2
4,"Cc1ccc(S(=O)(=O)NC(=O)NC(Cc2ccccc2)C(=O)NC(C)C(=O)Nc2nnc(S)s2)cc1 (stereo unspecified) [2-({[(4-methylbenzene)sulfonyl]carbamoyl}amino)-3-phenyl-N-{1-[(5-sulfanyl-1,3,4-thiadiazol-2-yl)carbamoyl]ethyl}propanamide]",4
5,"CC(NC(=O)C(Cc1ccccc1)NS(=O)(=O)c1c(F)c(F)c(F)c(F)c1F)C(=O)Nc1nnc(S)s1 (stereo unspecified) [2-[(2,3,4,5,6-pentafluorobenzene)sulfonamido]-3-phenyl-N-{1-[(5-sulfanyl-1,3,4-thiadiazol-2-yl)carbamoyl]ethyl}propanamide]",5
6,"CC(NC(=O)C(Cc1ccccc1)NS(=O)(=O)c1cc(Cl)ccc1Cl)C(=O)Nc1nnc(S)s1 (stereo unspecified) [2-[(2,5-dichlorobenzene)sulfonamido]-3-phenyl-N-{1-[(5-sulfanyl-1,3,4-thiadiazol-2-yl)carbamoyl]ethyl}propanamide]",15
7,"CC(=O)Nc1ccc(S(=O)(=O)NC(Cc2ccccc2)C(=O)NC(C)C(=O)Nc2nnc(S)s2)cc1 (stereo unspecified) [2-[(4-acetamidobenzene)sulfonamido]-3-phenyl-N-{1-[(5-sulfanyl-1,3,4-thiadiazol-2-yl)carbamoyl]ethyl}propanamide]",16
8,"CC(NC(=O)C(Cc1ccccc1)NS(=O)(=O)c1ccc(Br)cc1)C(=O)Nc1nnc(S)s1 (stereo unspecified) [2-[(4-bromobenzene)sulfonamido]-3-phenyl-N-{1-[(5-sulfanyl-1,3,4-thiadiazol-2-yl)carbamoyl]ethyl}propanamide]",16
9,"CC(NC(=O)C(Cc1ccccc1)NS(=O)(=O)c1ccc(F)cc1)C(=O)Nc1nnc(S)s1 (stereo unspecified) [2-[(4-fluorobenzene)sulfonamido]-3-phenyl-N-{1-[(5-sulfanyl-1,3,4-thiadiazol-2-yl)carbamoyl]ethyl}propanamide]",21
10,"CC(NC(=O)C(Cc1ccccc1)NS(=O)(=O)c1ccc(I)cc1)C(=O)Nc1nnc(S)s1 (stereo unspecified) [2-[(4-iodobenzene)sulfonamido]-3-phenyl-N-{1-[(5-sulfanyl-1,3,4-thiadiazol-2-yl)carbamoyl]ethyl}propanamide]",14
11,"COc1ccc(S(=O)(=O)NC(Cc2ccccc2)C(=O)NC(C)C(=O)Nc2nnc(S)s2)cc1 (stereo unspecified) [2-[(4-methoxybenzene)sulfonamido]-3-phenyl-N-{1-[(5-sulfanyl-1,3,4-thiadiazol-2-yl)carbamoyl]ethyl}propanamide]",14
12,"Cc1ccc(S(=O)(=O)NC(Cc2ccccc2)C(=O)NC(C)C(=O)Nc2nnc(S)s2)cc1 (stereo unspecified) [2-[(4-methylbenzene)sulfonamido]-3-phenyl-N-{1-[(5-sulfanyl-1,3,4-thiadiazol-2-yl)carbamoyl]ethyl}propanamide]",15
13,"CC(NC(=O)C(Cc1ccccc1)NS(=O)(=O)c1ccc([N+](=O)[O-])cc1)C(=O)Nc1nnc(S)s1 (stereo unspecified) [2-[(4-nitrobenzene)sulfonamido]-3-phenyl-N-{1-[(5-sulfanyl-1,3,4-thiadiazol-2-yl)carbamoyl]ethyl}propanamide]",13
14,"CC(NC(=O)C(Cc1ccccc1)NS(=O)(=O)CC12CCC(CC1=O)C2(C)C)C(=O)Nc1nnc(S)s1 (stereo unspecified) [2-[({7,7-dimethyl-2-oxobicyclo[2.2.1]heptan-1-yl}methane)sulfonamido]-3-phenyl-N-{1-[(5-sulfanyl-1,3,4-thiadiazol-2-yl)carbamoyl]ethyl}propanamide]",25
15,"CC(NC(=O)C(Cc1ccccc1)NS(=O)(=O)c1cccc2c(N(C)C)cccc12)C(=O)Nc1nnc(S)s1 (stereo unspecified) [2-{[5-(dimethylamino)naphthalene-1-]sulfonamido}-3-phenyl-N-{1-[(5-sulfanyl-1,3,4-thiadiazol-2-yl)carbamoyl]ethyl}propanamide]",43
16,"CC(NC(=O)C(Cc1ccccc1)NC(=O)NS(=O)(=O)c1ccccc1)C(=O)Nc1nnc(S)s1 (stereo unspecified) [2-{[(benzenesulfonyl)carbamoyl]amino}-3-phenyl-N-{1-[(5-sulfanyl-1,3,4-thiadiazol-2-yl)carbamoyl]ethyl}propanamide]",3
17,"CC(NC(=O)C(Cc1ccccc1)NS(=O)(=O)Cc1ccccc1)C(=O)Nc1nnc(S)s1 (stereo unspecified) [3-phenyl-2-(phenylmethane)sulfonamido-N-{1-[(5-sulfanyl-1,3,4-thiadiazol-2-yl)carbamoyl]ethyl}propanamide]",19
18,"CC(NC(=O)C(Cc1ccccc1)NS(=O)(=O)c1cccc2cccnc12)C(=O)Nc1nnc(S)s1 (stereo unspecified) [3-phenyl-2-(quinoline-8-sulfonamido)-N-{1-[(5-sulfanyl-1,3,4-thiadiazol-2-yl)carbamoyl]ethyl}propanamide]",36
19,"CC(NC(=O)C(Cc1ccccc1)NS(=O)(=O)c1cccs1)C(=O)Nc1nnc(S)s1 (stereo unspecified) [3-phenyl-N-{1-[(5-sulfanyl-1,3,4-thiadiazol-2-yl)carbamoyl]ethyl}-2-(thiophene-2-sulfonamido)propanamide]",9
20,"Cc1cc(C)c(S(=O)(=O)NC(Cc2ccccc2)C(=O)NC(C)C(=O)Nc2nnc(S)s2)c(C)c1 (stereo unspecified) [3-phenyl-N-{1-[(5-sulfanyl-1,3,4-thiadiazol-2-yl)carbamoyl]ethyl}-2-[(2,4,6-trimethylbenzene)sulfonamido]propanamide]",17
21,"CC(NC(=O)C(Cc1ccccc1)NS(=O)(=O)c1cccc(C(F)(F)F)c1)C(=O)Nc1nnc(S)s1 (stereo unspecified) [3-phenyl-N-{1-[(5-sulfanyl-1,3,4-thiadiazol-2-yl)carbamoyl]ethyl}-2-{[3-(trifluoromethyl)benzene]sulfonamido}propanamide]",9
